Laboratory results taken from ChEMBL document CHEMBL5634172, “Peniditerpenoids A and B: Oxidized Indole Diterpenoids with Osteoclast Differentiation Inhibitory Activity from a Mangrove-Sediment-Derived Penicillium sp” (J Nat Prod, 2024).
Calls of active or inactive are those of the source. The rule behind the calls is not given here.

Key:
RAW264.7 [1] = assay: Antiinflammatory activity against mouse RAW264.7 cells stably transfected with luciferase reporter gene assessed as inhibition of LPS-induced NF-kB activation preincubated for 30 min followed by LPS stimulation for 8 hrs by luciferase based assay; format: functional, cell-based
[2] = target: T1, NF-kappa-B inhibitor alpha (Mus musculus) (UniProt Q9Z1E3); assay: Inhibition of IkappaBalpha phosphorylation in mouse RAW264.7 cells at 5 to 20 uM preincubated for 4 hrs followed by RANKL addition and measured after 30 mins by Western blot analysis; format: cell-based; settings: dose 5-20 µM
T1 sequence (whole entry): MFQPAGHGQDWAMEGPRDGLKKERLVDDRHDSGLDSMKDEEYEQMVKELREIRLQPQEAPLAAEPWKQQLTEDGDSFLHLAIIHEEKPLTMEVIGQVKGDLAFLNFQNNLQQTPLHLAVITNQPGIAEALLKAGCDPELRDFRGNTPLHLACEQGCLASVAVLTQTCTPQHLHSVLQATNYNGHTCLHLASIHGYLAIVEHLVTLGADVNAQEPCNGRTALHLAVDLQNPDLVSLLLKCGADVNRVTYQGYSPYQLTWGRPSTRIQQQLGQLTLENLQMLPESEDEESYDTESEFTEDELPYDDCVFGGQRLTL

RAW264.7 [3] = assay: Inhibition of p65 translocation in mouse RAW264.7 cells at 20 uM preincubated with RANKL for 24 hrs followed by compound addition and measured after 4 hrs by immunofluorescence analysis; format: cell-based
RAW264.7 [4] = assay: Downregulation of nuclear NFATc1 expression in mouse RAW264.7 cells at 20 uM preincubated for 4 hrs followed by RANKL addition and measured after 24 hrs by Western blot analysis; format: functional, cell-based; settings: time 28.0 hrs
RAW264.7 [5] = assay: Upregulation of cytoplasmic p65 level in mouse RAW264.7 cells at 5 to 20 uM preincubated for 4 hrs followed by RANKL addition and measured after 30 mins by Western blot analysis; format: functional, cell-based; settings: dose 5-20 µM, time 4.5 hrs
RAW264.7 [6] = assay: Cytotoxicity against mouse RAW264.7 cells assessed as reduction in cell viability at 5 to 20 uM incubated for 72 hrs by MTT assay; format: toxicity, cell-based; settings: raw264.7, 72 h, dose 5-20 µM
RAW264.7 [7] = assay: Inhibition of p65 translocation in mouse RAW264.7 cells at 5 to 20 uM preincubated for 4 hrs followed by RANKL addition and measured after 30 mins by Western blot analysis; format: cell-based; settings: dose 5-20 µM, time 4.5 hrs
BMDM = assay: Anti-osteoclastogenesis activity in RANKL/MCSF-induced mouse BMDM cells assessed as inhibition of osteoclast differentiation at 5 to 20 uM incubated for 3 days by TRAP-staining based microscopic analysis; format: functional, cell-based; settings: dose 5-20 µM, time 3.0 day
[8] = target: T2, Mitogen-activated protein kinase kinase kinase 7 (Mus musculus) (UniProt Q62073); assay: Inhibition of TAK1 activation in mouse RAW264.7 cells at 5 to 20 uM preincubated for 4 hrs followed by RANKL addition and measured after 30 mins by Western blot analysis; format: cell-based; settings: dose 5-20 µM, time 4.5 hrs
T2 sequence (whole entry): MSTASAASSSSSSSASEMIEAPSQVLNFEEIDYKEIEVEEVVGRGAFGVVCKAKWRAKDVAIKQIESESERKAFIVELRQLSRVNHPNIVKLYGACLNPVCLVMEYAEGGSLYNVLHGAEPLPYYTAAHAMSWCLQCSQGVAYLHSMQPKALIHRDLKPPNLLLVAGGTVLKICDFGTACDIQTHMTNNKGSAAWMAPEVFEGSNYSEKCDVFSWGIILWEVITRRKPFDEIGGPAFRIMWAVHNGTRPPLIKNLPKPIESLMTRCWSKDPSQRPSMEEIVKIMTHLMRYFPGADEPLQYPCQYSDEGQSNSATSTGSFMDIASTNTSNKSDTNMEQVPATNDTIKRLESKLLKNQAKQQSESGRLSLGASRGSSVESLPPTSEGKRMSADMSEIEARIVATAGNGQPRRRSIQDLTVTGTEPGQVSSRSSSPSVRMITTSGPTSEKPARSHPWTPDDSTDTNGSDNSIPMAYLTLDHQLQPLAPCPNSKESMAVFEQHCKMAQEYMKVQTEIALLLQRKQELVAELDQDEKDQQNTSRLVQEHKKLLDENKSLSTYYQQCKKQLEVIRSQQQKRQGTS

Row | SMILES | IC50 (RAW264.7 [1]) [µM] | inhibition [2] | inhibition (RAW264.7 [3]) | Activity (RAW264.7 [4]) | Activity (RAW264.7 [5]) | Activity (RAW264.7 [6]) | inhibition (RAW264.7 [7]) | Activity (BMDM) | inhibition [8]
1 | Cc1ccc(S(=O)(=O)/C=C/C#N)cc1 | 5 |  |  |  |  |  |  |  | 
2 | CC1(C)O[C@@]23CC[C@@]4(C)[C@@](O)(CC[C@@H](CC(=O)c5ccccc5N)[C@]4(C)C(=O)O)C2=CC(=O)[C@@H]1O3 | 11 | Active | Active | Active | Active | Non-Toxic | Active | Active | Active
